# According to ChEMBL document CHEMBL3885881, “DrugMatrix”:
# Species on record: Rattus norvegicus
# Assay: DrugMatrix - Regimen: Daily Repeat
# Type: toxicity, organism-based, Sprague-Dawley
# Set-up: regimen Daily Repeat, gender Male, age 6-8 weeks
# Conditions: in vivo, po, 80 mg/kg, route oral GAVAGE, dose level High, vehicle .5 % CMC; for ABSOLUTE BASOPHIL / ABSOLUTE EOSINOPHIL / ABSOLUTE LYMPHOCYTE / ABSOLUTE MONOCYTE / ABSOLUTE SEGMENTED NEUTROPHIL / BASOPHIL / EOSINOPHIL / ERYTHROCYTE COUNT / HEMATOCRIT / HEMOGLOBIN / LEUKOCYTE COUNT / LYMPHOCYTE / MEAN CORPUSCULAR HEMOGLOBIN / MEAN CORPUSCULAR HEMOGLOBIN CONCENTRATION / MEAN CORPUSCULAR VOLUME / MONOCYTE / NEUTROPHIL / PLATELET COUNT: tissue Blood; for ALANINE AMINOTRANSFERASE / ALBUMIN / ALKALINE PHOSPHATASE / ASPARTATE AMINOTRANSFERASE / BLOOD UREA NITROGEN / CHLORIDE / CHOLESTEROL / CREATINE PHOSPHOKINASE / CREATININE / GLUCOSE / LACTATE DEHYDROGENASE / LIPASE / PHOSPHORUS / POTASSIUM / SODIUM / TOTAL BILIRUBIN / TOTAL PROTEIN / URIC ACID: tissue Plasma
compound,measurement,setting,value
O=c1cc(-c2ccccc2)oc2c1ccc1ccccc12 [ALPHA-NAPHTHOFLAVONE],ABSOLUTE BASOPHIL,"120 h, time 5 day",170 cells/µL
same,ABSOLUTE EOSINOPHIL,"120 h, time 5 day",42.5 cells/µL
same,ABSOLUTE LYMPHOCYTE,"120 h, time 5 day",11500 cells/µL
same,ABSOLUTE MONOCYTE,"120 h, time 5 day",230 cells/µL
same,ABSOLUTE SEGMENTED NEUTROPHIL,"120 h, time 5 day",1790 cells/µL
same,BASOPHIL,"120 h, time 5 day",1.35%
same,EOSINOPHIL,"120 h, time 5 day",0.35%
same,ERYTHROCYTE COUNT,"120 h, time 5 day",7.43 x10E6/uL
same,HEMATOCRIT,"120 h, time 5 day",46.52%
same,HEMOGLOBIN,"120 h, time 5 day",15.82 G/DL
same,LEUKOCYTE COUNT,"120 h, time 5 day",13.81 x10E3/uL
same,LYMPHOCYTE,"120 h, time 5 day",82.92%
same,MEAN CORPUSCULAR HEMOGLOBIN,"120 h, time 5 day",21.35 pg
same,MEAN CORPUSCULAR HEMOGLOBIN CONCENTRATION,"120 h, time 5 day",34.08 G/DL
same,MEAN CORPUSCULAR VOLUME,"120 h, time 5 day",62.67 fL
same,MONOCYTE,"120 h, time 5 day",1.57%
same,NEUTROPHIL,"120 h, time 5 day",13.3%
same,PLATELET COUNT,"120 h, time 5 day",1518.75 x10E3/uL
same,ALANINE AMINOTRANSFERASE,"120 h, time 5 day",31.25 u/L
same,ALBUMIN,"120 h, time 5 day",3.65 G/DL
same,ALKALINE PHOSPHATASE,"120 h, time 5 day",212.25 u/L
same,ASPARTATE AMINOTRANSFERASE,"120 h, time 5 day",78.25 u/L
same,BLOOD UREA NITROGEN,"120 h, time 5 day",9.25 mg/dL
same,CHLORIDE,"120 h, time 5 day",108 MEQ/L
same,CHOLESTEROL,"120 h, time 5 day",61 mg/dL
same,CREATINE PHOSPHOKINASE,"120 h, time 5 day",190.25 u/L
same,CREATININE,"120 h, time 5 day",0.53 mg/dL
same,GLUCOSE,"120 h, time 5 day",111 mg/dL
same,LACTATE DEHYDROGENASE,"120 h, time 5 day",112.75 u/L
same,LIPASE,"120 h, time 5 day",16.75 u/L
same,PHOSPHORUS,"120 h, time 5 day",12.3 mg/dL
same,POTASSIUM,"120 h, time 5 day",6.75 MEQ/L
same,SODIUM,"120 h, time 5 day",151.5 MEQ/L
same,TOTAL BILIRUBIN,"120 h, time 5 day",0.23 mg/dL
same,TOTAL PROTEIN,"120 h, time 5 day",6.07 G/DL
same,URIC ACID,"120 h, time 5 day",0.72 mg/dL
same,ABSOLUTE BASOPHIL,"2184 h, time 91 day",340 cells/µL
same,ABSOLUTE EOSINOPHIL,"2184 h, time 91 day",100 cells/µL
same,ABSOLUTE LYMPHOCYTE,"2184 h, time 91 day",10400 cells/µL
same,ABSOLUTE MONOCYTE,"2184 h, time 91 day",180 cells/µL
same,ABSOLUTE SEGMENTED NEUTROPHIL,"2184 h, time 91 day",1510 cells/µL
same,BASOPHIL,"2184 h, time 91 day",2.59%
same,EOSINOPHIL,"2184 h, time 91 day",0.83%
same,ERYTHROCYTE COUNT,"2184 h, time 91 day",9.33 x10E6/uL
same,HEMATOCRIT,"2184 h, time 91 day",49.58%
same,HEMOGLOBIN,"2184 h, time 91 day",16.44 G/DL
same,LEUKOCYTE COUNT,"2184 h, time 91 day",12.6 x10E3/uL
same,LYMPHOCYTE,"2184 h, time 91 day",82.74%
same,MEAN CORPUSCULAR HEMOGLOBIN,"2184 h, time 91 day",17.63 pg
same,MEAN CORPUSCULAR HEMOGLOBIN CONCENTRATION,"2184 h, time 91 day",33.15 G/DL
same,MEAN CORPUSCULAR VOLUME,"2184 h, time 91 day",53.18 fL
same,MONOCYTE,"2184 h, time 91 day",1.38%
same,NEUTROPHIL,"2184 h, time 91 day",12.04%
same,PLATELET COUNT,"2184 h, time 91 day",1261.8 x10E3/uL
same,ALANINE AMINOTRANSFERASE,"2184 h, time 91 day",28.3 u/L
same,ALBUMIN,"2184 h, time 91 day",3.77 G/DL
same,ALKALINE PHOSPHATASE,"2184 h, time 91 day",94.2 u/L
same,ASPARTATE AMINOTRANSFERASE,"2184 h, time 91 day",64.7 u/L
same,BLOOD UREA NITROGEN,"2184 h, time 91 day",15.9 mg/dL
same,CHLORIDE,"2184 h, time 91 day",103.2 MEQ/L
same,CHOLESTEROL,"2184 h, time 91 day",70.3 mg/dL
same,CREATINE PHOSPHOKINASE,"2184 h, time 91 day",80.9 u/L
same,CREATININE,"2184 h, time 91 day",0.54 mg/dL
same,GLUCOSE,"2184 h, time 91 day",152 mg/dL
same,LACTATE DEHYDROGENASE,"2184 h, time 91 day",46.3 u/L
same,LIPASE,"2184 h, time 91 day",18.7 u/L
same,PHOSPHORUS,"2184 h, time 91 day",8.35 mg/dL
same,POTASSIUM,"2184 h, time 91 day",6.21 MEQ/L
same,SODIUM,"2184 h, time 91 day",149.8 MEQ/L
same,TOTAL BILIRUBIN,"2184 h, time 91 day",0.21 mg/dL
same,TOTAL PROTEIN,"2184 h, time 91 day",7.38 G/DL
same,URIC ACID,"2184 h, time 91 day",0.89 mg/dL
same,ABSOLUTE BASOPHIL,"[…], time 28 day",200 cells/µL
same,ABSOLUTE EOSINOPHIL,"[…], time 28 day",76 cells/µL
same,ABSOLUTE LYMPHOCYTE,"[…], time 28 day",13000 cells/µL
same,ABSOLUTE MONOCYTE,"[…], time 28 day",200 cells/µL
same,ABSOLUTE SEGMENTED NEUTROPHIL,"[…], time 28 day",1710 cells/µL
same,BASOPHIL,"[…], time 28 day",1.28%
same,EOSINOPHIL,"[…], time 28 day",0.48%
same,ERYTHROCYTE COUNT,"[…], time 28 day",8.57 x10E6/uL
same,HEMATOCRIT,"[…], time 28 day",47.9%
same,HEMOGLOBIN,"[…], time 28 day",15.96 G/DL
same,LEUKOCYTE COUNT,"[…], time 28 day",15.29 x10E3/uL
same,LYMPHOCYTE,"[…], time 28 day",85.76%
same,MEAN CORPUSCULAR HEMOGLOBIN,"[…], time 28 day",18.62 pg
same,MEAN CORPUSCULAR HEMOGLOBIN CONCENTRATION,"[…], time 28 day",33.3 G/DL
same,MEAN CORPUSCULAR VOLUME,"[…], time 28 day",55.92 fL
same,MONOCYTE,"[…], time 28 day",1.36%
same,NEUTROPHIL,"[…], time 28 day",10.8%
same,PLATELET COUNT,"[…], time 28 day",1456 x10E3/uL
same,ALANINE AMINOTRANSFERASE,"[…], time 28 day",26.4 u/L
same,ALBUMIN,"[…], time 28 day",3.66 G/DL
same,ALKALINE PHOSPHATASE,"[…], time 28 day",157.4 u/L
same,ASPARTATE AMINOTRANSFERASE,"[…], time 28 day",65.6 u/L
same,BLOOD UREA NITROGEN,"[…], time 28 day",13.6 mg/dL
same,CHLORIDE,"[…], time 28 day",104 MEQ/L
same,CHOLESTEROL,"[…], time 28 day",49.8 mg/dL
same,CREATINE PHOSPHOKINASE,"[…], time 28 day",102 u/L
same,CREATININE,"[…], time 28 day",0.46 mg/dL
same,GLUCOSE,"[…], time 28 day",153.8 mg/dL
same,LACTATE DEHYDROGENASE,"[…], time 28 day",60 u/L
same,LIPASE,"[…], time 28 day",19 u/L
same,PHOSPHORUS,"[…], time 28 day",9.14 mg/dL
same,POTASSIUM,"[…], time 28 day",5.7 MEQ/L
same,SODIUM,"[…], time 28 day",151 MEQ/L
same,TOTAL BILIRUBIN,"[…], time 28 day",0.22 mg/dL
same,TOTAL PROTEIN,"[…], time 28 day",6.76 G/DL
same,URIC ACID,"[…], time 28 day",0.26 mg/dL
